Measured values as given in article PMC6271241, “Several Human Cyclin-Dependent Kinase Inhibitors, Structurally Related to Roscovitine, As New Anti-Malarial Agents” (Molecules, 2014).
pIC50: −log10 of the molar value. Where two headings read alike, the source gives them in different places.

Legend:
Pf3D7 = assay: [3H]hypoxanthine incorporation growth assay, Pf3D7; format: cell-based, Plasmodium falciparum; settings: for pIC50: Plasmodium falciparum
Protocol: (§1) A selection of 15 molecules 4b–c, 10–13 representing the different 2,6,9-trisubstituted purine series, including newly synthesized products was screened as anti-malarial agents on two different P. falciparum strains, Pf3D7, a standard drug-sensitive African stain, and Pf7G8, a brazilian chloroquino-resistant strain (Figure 3). The compound activity was evaluated during the parasitic erythocytic cycle, by the means of a [^3H] hypoxanthine incorporation assay. It is directly correlated to parasite viability, as described in the experimental section.
(§2) At first, the activity of the fifteen compounds was screened at three different concentrations (10, 50 and 100 µM) on Pf3D7. Chloroquine which is not a kinase inhibitor, but which is the antimalarial reference drug was used as the positive control. […] Chloroquine was again used as a positive control.
(§3) Compounds were tested against synchronous ring-stage parasites of Pf3D7 and Pf7G8 strains. Drugs testing were carried out in 96-well microtiter plates. The chloroquine (CQ) diphosphate was purchased from Sigma (Lyon, France). […] For each assay, each drug dilution was analyzed in triplicate.
(§4) For the in vitro isotopic microtest, 200 µL of the suspension of synchronous parasitized red blood cells with >90% of the parasites at the ring stage (final parasitaemia, 0.3%; final haematocrit, 4%) per well were plated in 96-well plates that contained serial CQ or compounds concentrations. […] The plates were incubated at 37 °C, in an atmosphere of 5% O2, 5% CO2, and 90% N2 for 48 h. Immediately after incubation, plates were frozen and then thawed to lyse the erythrocytes. Cultures were harvested onto glass fiber filters and washed using a cell harvester (FilterMAT; Skatron Instruments, Dalsletta, Norway). The dried fiber filter papers were mixed with 2 mL of scintillation fluid (OptiScint; Perkin-Elmer, Waltham, UK). […] The initial value and the asymptotic result for high concentrations were fixed to 0% and 100%, respectively, available on the web.

Pf7G8 = assay: [3H]hypoxanthine incorporation growth assay, Pf7G8; format: cell-based, Plasmodium falciparum; settings: for pIC50: Plasmodium falciparum
Protocol: as §1, §2, §3, §4

DYRK1A = DYRK1A (Homo sapiens, UniProt Q13627); assay: DYRK1A kinase assay (Woodtide); format: biochemical; settings: 15 µM ATP; Table 1
CK1δ/ε [1] = assay: CK1δ/ε kinase assay (CKS peptide); settings: read-out: IC50 CK1δ/ε; 15 µM ATP; Table 1
CDK5/p25 = target: T1, CDK5/p25 (Homo sapiens, UniProt Q00535); assay: CDK5/p25 kinase assay ([γ-33P] ATP, histone H1); format: biochemical
T1 construct: made in house
Protocol: (§5) CDK1/cyclin B (M phase starfish oocytes, native), CDK2/cyclin A (human, recombinant) and CDK5/p25 (human, recombinant) were prepared as previously described. […] ATP (3000 Ci/mmol; 10 mCi/mL) in a final volume of 30 µL. After 30 min incubation at 30 °C, 25 µL aliquots of supernatant were spotted onto 2.5 cm × 3 cm pieces of Whatman P81 phosphocellulose paper, and, 20 s later, the filters were washed five times (for at least 5 min each time) in a solution of 10 mL of phosphoric acid/liter of water. The wet filters were counted in the presence of 1 mL of ACS (Amersham, Pittsburgh, PA, USA) scintillation fluid.

GSK-3α/β = GSK-3α/β kinase assay (GS-1 peptide); settings: read-out: IC50 GSK-3αβ; 15 µM ATP; Table 1; >10 = no activity at 10 µM
CDK1/cyclin B [2] = assay: CDK1/cyclin B kinase assay ([γ-33P] ATP, histone H1); format: biochemical, starfish; settings: 15 µM ATP, Table 1
Protocol: as §5

CDK1/cyclin B [3] = assay: as above; format: biochemical, starfish; settings: Table A1; read-out: IC50 on HsCDKs HsCDK1
CDK2/cyclin A = target: T2, CDK2/cyclin A (Homo sapiens, UniProt P24941); assay: CDK2/cyclin A kinase assay ([γ-33P] ATP, histone H1); format: biochemical; settings: 15 µM ATP, Table 1
T2 construct: made in house
Protocol: as §5

CDK1/cyclin B [4] = test system: CDK1/cyclin B; parameters: method as in PMID 18698753; settings: previously reported; cited from earlier work
CK1δ/ε [5] = test system: CK1δ/ε; parameters: method as in PMID 18698753; settings: previously reported; read-out: IC50 CK1; cited from earlier work
[6] = CDK5/p25, 15 µM ATP, Table 1, read-out: IC50 CDK5
[7] = Table A1, read-out: IC50 on HsCDKs HsCDK5
[8] = 48 h, drug-sensitive strain, 48 h, Table 2, read-out: Growth IC50 Pf3D7
[9] = Table A1, N.I. = not inhibitor, read-out: IC50 on P. falciparum Strains Pf3D7
[10] = Table A1, N.I. = not inhibitor, read-out: IC50 on P. falciparum Strains Pf7G8
[11] = chloroquino-resistant strain, 48 h, Table 2, read-out: Growth IC50 Pf7G8

T1 sequence (Q00535 whole entry): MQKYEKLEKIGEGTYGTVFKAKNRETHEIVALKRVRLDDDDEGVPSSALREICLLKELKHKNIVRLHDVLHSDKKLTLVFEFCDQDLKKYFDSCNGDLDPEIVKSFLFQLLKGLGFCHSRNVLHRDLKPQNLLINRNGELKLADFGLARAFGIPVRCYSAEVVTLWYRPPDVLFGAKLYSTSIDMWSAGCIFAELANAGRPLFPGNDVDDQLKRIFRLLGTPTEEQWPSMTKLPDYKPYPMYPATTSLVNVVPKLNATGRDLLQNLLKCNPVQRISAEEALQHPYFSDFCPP
T1 sequence (Q15078 99-307 partner limits assumed): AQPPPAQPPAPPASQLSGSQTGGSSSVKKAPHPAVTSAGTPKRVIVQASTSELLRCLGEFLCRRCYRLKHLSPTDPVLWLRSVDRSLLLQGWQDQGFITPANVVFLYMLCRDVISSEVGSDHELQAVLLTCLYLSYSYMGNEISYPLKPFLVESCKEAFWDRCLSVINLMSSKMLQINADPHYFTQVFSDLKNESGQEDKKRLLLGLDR

SMILES | pIC50 (CK1δ/ε [1]) | pIC50 (CDK5/p25; [6]) | pIC50 (GSK-3α/β) | pIC50 (CDK5/p25; [7]) | pIC50 (CDK1/cyclin B [2]) | pIC50 (CDK1/cyclin B [3]) | IC50 on P. falciparum Strains Pf3D7 (Pf3D7; Table A1, N.I. = not inhibitor) | IC50 on P. falciparum Strains Pf7G8 (Pf7G8; Table A1, N.I. = not inhibitor) | pIC50 (Pf3D7; [9]) | pIC50 (Pf7G8; [10]) | pIC50 (Pf7G8; [11]) | also measured
CCN(CC)CCCC(C)Nc1ccnc2cc(Cl)ccc12 (stereo not shown) [Chloroquine, chloroquine, reference compound] |  |  |  |  |  |  |  |  |  |  |  | pIC50 (Pf3D7; 48 h, read-out: Growth IC50 Pf3D7): 7.52; pIC50 (Pf7G8; 48 h, read-out: Growth IC50 Pf7G8): 6.74
CC(C)n1cnc2c(Nc3ccc(Br)cc3)nc(Nc3ncccn3)nc21 [Compound 4a] | 6.00 | 6.00 | 6.00 |  |  |  |  |  |  |  |  | pIC50 (DYRK1A): 5.52
CC(C)n1cnc2c(Nc3ccccn3)nc(Nc3ncccn3)nc21 [Compound 4b] | < 5.00 | < 5.00 | < 5.00 | < 5.00 |  |  | N.I. | N.I. |  |  |  | pIC50 (DYRK1A): 5.10
CC(C)n1cnc2c(Nc3cccnc3)nc(Nc3ncccn3)nc21 [Compound 4c] | < 5.00 | 5.37 | < 5.00 |  | 5.52 | 5.52 | N.I. | N.I. |  |  |  | pIC50 (DYRK1A): 5.10; pIC50 (CDK2/cyclin A): 5.74
CC(C)n1cnc2c(Nc3ccncc3)nc(Nc3ncccn3)nc21 [Compound 4d] | 5.55 | 5.15 | < 5.00 |  | 5.03 |  |  |  |  |  |  | pIC50 (DYRK1A): 5.28
CC(C)n1cnc2c(Nc3cncnc3)nc(Nc3cncnc3)nc21 [Compound 5] |  | 6.40 |  |  |  |  |  |  |  |  |  | pIC50 (CDK2/cyclin A): 6.70
CC(C)n1cnc2c(Nc3cnccn3)nc(Nc3cnccn3)nc21 [Compound 6] | 5.96 |  | < 5.00 |  |  |  |  |  |  |  |  | pIC50 (DYRK1A): 6.30; pIC50 (CDK2/cyclin A): 5.55
CC(C)n1cnc2c(Nc3cccc(-c4cccnc4)c3)nc(Cl)nc21 [Compound 17] |  |  |  | 7.30 |  | 6.74 | N.I. | N.I. |  |  |  | 
CC(C)n1cnc2c(Nc3ccc(Br)cc3)nc(-c3cccnc3)nc21 [Compound 18] |  |  |  | 6.14 |  | 6.39 | N.I. | N.I. |  |  |  | pIC50 (CDK1/cyclin B [4]): 6.39; pIC50 (CK1δ/ε [5]): 7.00
CC(C)n1cnc2c(Nc3ccc(Br)cc3)nc(-c3ccncc3)nc21 [Compound 22] |  |  |  | 6.22 |  | 6.22 |  |  | 5.86 | 6.00 | 6.00 | pIC50 (Pf3D7; [8]): 5.86; pIC50 (CDK1/cyclin B [4]): 6.23; pIC50 (CK1δ/ε [5]): 7.10

More lines, main results first:

pIC50 (CK1δ/ε [1]) | pIC50 (CDK5/p25; [6]) | pIC50 (GSK-3α/β) | pIC50 (CDK5/p25; [7]) | pIC50 (CDK1/cyclin B [2]) | pIC50 (CDK1/cyclin B [3]) | SMILES | IC50 on P. falciparum Strains Pf3D7 (Pf3D7; Table A1, N.I. = not inhibitor) | IC50 on P. falciparum Strains Pf7G8 (Pf7G8; Table A1, N.I. = not inhibitor) | pIC50 (Pf3D7; [9]) | pIC50 (Pf7G8; [10]) | pIC50 (Pf7G8; [11]) | also measured
6.70 | 7.52 | < 5.00 |  | 8.00 | 8.00 | CC[C@H](CO)Nc1nc(Nc2ccc(-c3cccnc3)nc2)c2ncn(C(C)C)c2n1 [Compound 10, (R)-2-(1-Hydroxybut-2-ylamino)-6-[6-(3-pyridyl)pyrid-3-ylamino]-9-iso-propylpurine] | N.I. | N.I. |  |  |  | 
7.40 | 6.40 | < 5.00 |  | 6.10 | 6.10 | CC[C@@H](CO)Nc1nc(Nc2cccc(-c3ccccn3)c2)c2ncn(C(C)C)c2n1 [Compound 11, (S)-2-(1-Hydroxybut-2-ylamino)-6-[3-(2-pyridyl)phenylamino]-9-iso-propylpurine] |  |  | 5.19 | 5.69 | 5.69 | pIC50 (Pf3D7; [8]): 5.19
6.70 | 7.00 | < 5.00 |  | 6.70 | 6.70 | CC[C@@H](CO)Nc1nc(Nc2cccc(-c3cccnc3)c2)c2ncn(C(C)C)c2n1 [Compound 12, (S)-2-(1-Hydroxybut-2-ylamino)-6-[3-(3-pyridyl)phenylamino]-9-iso-propylipurine] |  |  | 5.27 | 5.81 | 5.81 | 
6.30 |  | < 5.00 |  | 6.70 | 6.70 | CC[C@@H](CO)Nc1nc(Nc2ccc(-c3ccccn3)cc2)c2ncn(C(C)C)c2n1 [Compound 13, (S)-2-(1-Hydroxybut-2-ylamino)-6-[4-(2-pyridyl)phenylamino]-9-iso-propylpurine] | N.I. | N.I. |  |  |  | pIC50 (CDK2/cyclin A): 6.70
 |  |  | 7.52 |  | 7.30 | CC[C@H](CO)Nc1nc(Nc2ccc(-c3ccccn3)cc2)c2ncn(C(C)C)c2n1 [Compound 14] | N.I. | N.I. |  |  |  | 
 |  |  | 7.30 |  | 6.74 | CC[C@H](CO)Nc1nc(Nc2cccc(-c3cccnc3)c2)c2ncn(C(C)C)c2n1 [Compound 15] | N.I. | N.I. |  |  |  | 
 |  |  | 7.00 |  | 6.74 | CC[C@@H](CO)Nc1nc(Nc2ccc(-c3cncnc3)cc2)c2ncn(C(C)C)c2n1 [Compound 16] | N.I. | N.I. |  |  |  | 
 |  |  | 6.57 |  | 6.30 | CC[C@@H](CO)Nc1nc(Nc2ccc(-c3ncccn3)cc2)c2ncn(C(C)C)c2n1 [Compound 19] |  |  | 5.15 | 5.74 | 5.74 | pIC50 (Pf3D7; [8]): 5.15
 |  |  | 6.30 |  | 6.15 | CC[C@@H](CO)Nc1nc(Nc2cccc(-c3ncccn3)c2)c2ncn(C(C)C)c2n1 [Compound 20] |  |  | 4.65 | 5.33 | 5.33 | pIC50 (Pf3D7; [8]): 4.65
 |  |  | 7.22 |  | 7.40 | CC[C@H](CO)Nc1nc(Nc2ccc(-c3cncnc3)cc2)c2ncn(C(C)C)c2n1 [Compound 21] |  |  | 5.52 | 6.16 | 6.16 | pIC50 (Pf3D7; [8]): 5.52
